Broadly, the LD50 is the dose expected to kill half of the subjects tested. The term IC50 denotes the concentration at which inhibition is half-maximal. The term MIC denotes the smallest concentration in the dilution series that meets the test's criterion for growth inhibition.

Data set [1] in a line: CNS toxicity in po dosed mouse assessed as depression in CNS. It is filed as organism-based. The following applies: in vivo.
Data set [2] relates to Mus musculus. In words: Analgesic activity in […] albino mouse at 20 mg/kg, po measured after 2 hrs by Tail-Flick technique relative to control. Type of data set: functional.
For data set [3], the species on record is Homo sapiens. In words: Immunosuppressive activity in human T cell. It is filed as functional, organism-based.
Data set [4] is filed under the species Homo sapiens. In words: Immunosuppressive activity in human B cell. It is filed as functional, organism-based.
Data set [5] has as its system Escherichia coli. In words: Antibacterial activity against Escherichia coli assessed as zone of inhibition at 100 ppm. It is filed as functional. The settings on record: read-out: IZ.
The test system of data set [6] is Staphylococcus aureus. In words: Antibacterial activity against Staphylococcus aureus assessed as zone of inhibition at 100 ppm. Type of data set: functional. The settings on record: read-out: IZ.
For data set [7], the system named is Staphylococcus aureus. In words: Antimicrobial activity against Staphylococcus aureus assessed as bacterial growth inhibition. It is filed as functional.
Data set [8] deals with Micrococcus luteus. In words: Antimicrobial activity against Micrococcus luteus assessed as bacterial growth inhibition. It is filed as functional.
For data set [9], the system named is Staphylococcus saprophyticus. In words: Antimicrobial activity against Staphylococcus saprophyticus assessed as bacterial growth inhibition. Type of data set: functional.
Data set [10] relates to Staphylococcus epidermidis. In words: Antimicrobial activity against Staphylococcus epidermidis assessed as bacterial growth inhibition. Type of data set: functional.
Data set [11] relates to Bacillus subtilis. In words: Antimicrobial activity against Bacillus subtilis assessed as bacterial growth inhibition. Type of data set: functional.
Data set [12] relates to Escherichia coli. In words: Antimicrobial activity against Escherichia coli assessed as bacterial growth inhibition. Type of data set: functional.
For data set [13], the system named is Klebsiella oxytoca. In words: Antimicrobial activity against Klebsiella oxytoca assessed as bacterial growth inhibition. Type of data set: functional.
For data set [14], the system named is Proteus vulgaris. In words: Antimicrobial activity against Proteus vulgaris assessed as bacterial growth inhibition. It is filed as functional.
In data set [15] the test system is Proteus mirabilis. In words: Antimicrobial activity against Proteus mirabilis assessed as bacterial growth inhibition. Type of data set: functional.
Data set [16] concerns Citrobacter freundii. In words: Antimicrobial activity against Citrobacter freundii assessed as bacterial growth inhibition. It is filed as functional.
In data set [17] the test system is Pseudomonas aeruginosa. In words: Antimicrobial activity against Pseudomonas aeruginosa assessed as bacterial growth inhibition. It is filed as functional.
Data set [18] deals with Candida albicans. In words: Antimicrobial activity against Candida albicans assessed as bacterial growth inhibition. It is filed as functional.
The subject of data set [19] is Mycolicibacterium phlei. In words: Antimicrobial activity against Mycobacterium phlei assessed as bacterial growth inhibition. Type of data set: functional.

In brackets after ≈: the same amount, converted by molar mass. Bounds are passed on as bounds.

Take `CC(=O)Nc1ccc2nc(CO)n(-c3ccccc3C)c(=O)c2c1`: in data set [1], the LD50 was above 1000 mg/kg.

`CCCCc1nc2ccccc2c(=O)n1NC(=S)N1CCCC1`: in data set [2], the Activity amounted to 73%.

Compound `CC/C(C)=N/n1c(S)nc2sc3c(c2c1=O)CCCC3` gave an Activity in [2] of 72%.

`CCN(CC)C(=S)Nn1c(-c2ccccc2)nc2ccccc2c1=O` registered an Activity in [2] of 58%.

In the case of `C#CCN(Cc1ccc2nc(C)[nH]c(=O)c2c1)c1ccc(C(=O)N[C@@H](C[C@@H](F)C(=O)O)C(=O)O)cc1`, the IC50 amounted to 5.67 nM in data set [3] and 8.08 nM in [4].

For `Cc1nc2ccccc2c(=O)n1NC(=S)N1CCCC1`, in [2], the Activity was determined as 65%.

As to `Cc1nc2ccc(I)cc2c(=O)n1/N=C/c1cc(I)cc(I)c1O`, the zone of inhibition at 100 µg/mL in data set [5] worked out at 14 mm; in [6] it was 16 mm.

For `COc1cc(/C=N/n2c(C)nc3ccc(I)cc3c2=O)cc(Br)c1O`, the zone of inhibition at 100 µg/mL came to 14 mm in [5] and 16 mm in data set [6].

Turning to `O=C(CO)Nc1ccc2nc(CF)n(-c3ccccc3CO)c(=O)c2c1`, the LD50 in [1] was above 1000 mg/kg.

For `Cc1nc2ccc(I)cc2c(=O)n1/N=C/c1cc(Br)cc(Br)c1O`, the results for the zone of inhibition at 100 µg/mL in data set [5] and in data set [6] were 14 mm and 16 mm, respectively.

Regarding `CC(=O)Nc1ccc2nc(CF)n(-c3ccccc3CO)c(=O)c2c1`, the LD50 in [1] was above 1000 mg/kg.

In the case of `COc1cc(/C=N/n2c(C)nc3ccc(Br)cc3c2=O)cc(I)c1O`, the results for the zone of inhibition at 100 µg/mL in [5] and in [6] were 14 mm and 16 mm, respectively.

As for `CC(=O)Nc1ccc2nc(CSCC(NC(C)=O)C(=O)O)n(-c3ccccc3C)c(=O)c2c1` (stereo unspecified), in [1], the LD50 is above 1000 mg/kg.

In the case of `CCC(CC)=NNC1=Nc2ccccc2C(=O)C1c1ccc(OC)cc1` (stereo unspecified), the Activity in data set [2] turned out to be 64%.

`Cc1nc2ccc(Br)cc2c(=O)n1/N=C/c1cc(I)cc(I)c1O`: the zone of inhibition at 100 µg/mL in data set [5] worked out at 14 mm; in [6], 16 mm.

With `Cc1nc2ccc(Br)cc2c(=O)n1/N=C/c1cc(Cl)cc(Cl)c1O`, the values for the zone of inhibition at 100 µg/mL in data set [5] and in [6] were 14 mm and 16 mm, respectively.

As to `Cc1nc2ccc(I)cc2c(=O)n1/N=C/c1cc(Cl)cc(Cl)c1O`, the zone of inhibition at 100 µg/mL in data set [5] stood at 14 mm; in data set [6], 16 mm.

Regarding `CC(=O)Nc1ccc2nc(CF)n(-c3ccccc3C)c(=O)c2c1`, the 50% lethal dose (LD50) in [1] was above 1000 mg/kg.

In the case of `COc1cc(/C=N/n2c(C)nc3ccc(I)cc3c2=O)cc(I)c1O`, the zone of inhibition at 100 µg/mL in data set [5] was 14 mm; in data set [6], 16 mm.

Turning to `CC(=O)Nc1ccc2nc(CS(C)(=O)=O)n(-c3ccccc3C)c(=O)c2c1`, the LD50 in [1] was above 1000 mg/kg.

Regarding `CC(=O)Nc1ccc2nc(C[S+](C)[O-])n(-c3ccccc3C)c(=O)c2c1` (stereo unspecified), in data set [1], the 50% lethal dose (LD50) was above 1000 mg/kg.

Turning to `Cc1ccccc1-n1c(CF)nc2ccc(NC(=O)CO)cc2c1=O`, the LD50 in data set [1] is above 1000 mg/kg.

In turn, `CCN(CC)C(=S)Nn1c(SC)nc2ccccc2c1=O` came in with an Activity in data set [2] of 67%.

On to `COc1cc(/C=N/n2c(C)nc3ccc(Br)cc3c2=O)cc(Br)c1O`, for which the results for the zone of inhibition at 100 µg/mL in [5] and in [6] were 14 mm and 16 mm, respectively.

`O=C([O-])Cc1ccccc1Nc1c(Cl)cccc1Cl.[Na+]` [DICLOFENAC SODIUM] came in with an Activity in [2] of 60%.

`CCC(CC)=NNC1=Nc2ccccc2C(=O)C1c1ccccc1` (stereo unspecified): in [2], the Activity is reported as 72%.

For `Cc1nc2ccc(Br)cc2c(=O)n1/N=C/c1cc(Br)cc(Br)c1O`, the results for the zone of inhibition at 100 µg/mL in data set [5] and in data set [6] were 14 mm and 16 mm, respectively.

As for `O=c1c2ccc([N+](=O)[O-])cc2nc(/C=C/c2ccc(Cl)cc2)n1-c1ccc(O)cc1`, the MIC in [7], in data set [8], in data set [9], in [10], in data set [11] and in [12] was 125 µg/mL (≈ 298 µM) each time. Also, the MIC in [13], in [14], in data set [15], in data set [16], in data set [17] and in data set [18] was 125 µg/mL (≈ 298 µM) in each case. Further, the MIC in data set [19] is 125 µg/mL (≈ 298 µM).

These data come from ChEMBL document CHEMBL5260833, “An overview of quinazolines: Pharmacological significance and recent developments” (Eur J Med Chem, 2018).
